For this assay, the system named is multi-cancer cell line panel. The experiment in a line: OncoPanel cytotoxicity assay, whole panel summary. The class given is cell-based, human. On the procedure:
This Example describes an evaluation of the effect of a representative small molecule MDM2i on the growth of cells in a multi-cancer cell line panel. In this Example, the MDM2 inhibitors used were Compound A and Compound B p-toluenensulfonate. The panel included 250 human cancer cell lines (OncoPanel™, Ricerca Biosciences, Painesville, Ohio) that were evaluated in a high content drug screening analysis. The relative IC50 values for the cell lines were determined.
Cells were grown in RPMI 1640, 10% FBS, 2 mM L-alanyl-L-Glutamine, 1 mM Na Pyruvate, or a special medium in a humidified atmosphere of 5% CO2 at 37° C. Cells were seeded into 384-well plates and incubated in a humidified atmosphere of 5% CO2 at 37° C. Test compounds were added 24 hours post cell seeding. […]
Compounds were serially diluted 3.16-fold and assayed over 10 concentrations of inhibitor in a final assay concentration of 0.1% DMSO from the highest test concentration specified in the sample information chapter. Automated fluorescence microscopy was carried out using a GE Healthcare InCell Analyzer 1000, and images were collected with a 4×objective. Twelve bit tiff images were acquired using the InCell Analyzer 1000 3.2 and analyzed with Developer Toolbox 1.6 software.
Cell proliferation was measured by the signal intensity of the incorporated nuclear dye. […]

Take `CC[C@@H]1CNC2(CC2)CN1C(=O)[C@@H]1C[C@@H](F)CN1C(=O)C1=C(C(C)C)N2C(=N[C@@](C)(c3ccc(Cl)nc3)[C@H]2c2ccc(Cl)c(F)c2)S1` [Compound A, [(5R,6S)-5-(4-Chloro-3-fluorophenyl)-6-(6-chloropyridin-3-yl)-6-methyl-3-(propan-2-yl)-5,6-dihydroimidazo[2,1-b][1,3]thiazol-2-yl][(2S,4R)-2-{[(6R)-6-ethyl-4,7-diazaspiro[2.5]oct-7-yl]carbonyl}-4-fluoropyrrolidin-1-yl]methanone]: the “share of the cell lines with IC50 values of <1 μM” value is listed as “Approximately 25%” and the “share of the cell lines with IC50 values of >10” value is on record as “approximately 70%”.
